One assay deals with SARS-CoV-2 USA-WA1/2020. Nature of the assay: PTC299 and remdesivir alone or combined, SARS-CoV-2 titer in Vero cells (TCID50). The class given is cell-based. The settings on record: remdesivir 5 µM, 24 hours post infection.
For the next assay, the target named is T1, DHODH (Homo sapiens, UniProt Q02127).
T1 construct: from tissue; host or cells: isolated mitochondria / mitochondria extracts
Nature of the assay: Isolated mitochondria colorimetric assay of DHODH activity. The class given is biochemical. Conditions: 0.1, 1, 10, 100, 1000, or 1000 nM. The source says:
FIG. 3 is a plot of % inhibition vs compound concentration in nM, illustrating the results of a colorimetric assay of inhibition of DHODH activity in vitro in mitochondria extracts by PTC299, brequinar, and teriflunomide, compared to the negative control, PTC-371.
The latter two compounds are known DHODH inhibitors.

Assay [1] has as its system HT1080 human fibrosarcoma cells. Nature of the assay: De novo pyrimidine nucleotide synthesis from 15N-glutamine in HT1080 cells. The class given is cell-based. The settings on record: 100 nM. From the text:
In this Example, fibrosarcoma cells were used to investigate the effect of PTC299 on pyrimidine nucleotide synthesis. Glutamine is an upstream precursor of dihydroorotic acid in the de novo pyrimidine synthesis pathway, as illustrated in FIG. 1.

T1 sequence (Q02127 whole entry, species assumed): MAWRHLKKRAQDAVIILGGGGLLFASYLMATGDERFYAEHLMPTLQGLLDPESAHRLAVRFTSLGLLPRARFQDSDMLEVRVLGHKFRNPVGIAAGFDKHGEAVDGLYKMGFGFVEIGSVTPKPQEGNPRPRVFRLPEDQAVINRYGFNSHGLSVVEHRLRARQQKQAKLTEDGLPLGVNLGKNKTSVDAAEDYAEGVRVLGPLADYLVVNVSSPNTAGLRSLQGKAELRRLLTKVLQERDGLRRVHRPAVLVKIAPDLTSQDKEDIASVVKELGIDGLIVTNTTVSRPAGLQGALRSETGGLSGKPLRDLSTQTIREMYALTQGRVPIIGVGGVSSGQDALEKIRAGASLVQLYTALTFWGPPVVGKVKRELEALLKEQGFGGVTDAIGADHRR

Consider `CCC(CC)COC(=O)[C@H](C)N[P@](=O)(OC[C@H]1O[C@@](C#N)(c2ccc3c(N)ncnn23)[C@H](O)[C@@H]1O)Oc1ccccc1` [Remdesivir, remdesivir, reference compound], for which the “reduction in titer relative to untreated control” value in the assay with SARS-CoV-2 USA-WA1/2020 worked out at 86%.

Take `COc1ccc(C2c3[nH]c4ccc(Cl)cc4c3CCN2C(=O)Oc2ccc(Cl)cc2)cc1` (stereo not drawn) [PTC-371, reference compound]: the “inhibition of DHODH activity” value against DHODH is on record as “no inhibition was observed”. Besides, the “suppression of de novo pyrimidine nucleotide biosynthesis” value in assay [1] is reported as “did not suppress de novo pyrimidine nucleotide biosynthesis”.

(Values after patent publication US20230172915A1, “DHODH INHIBITOR FOR THE TREATMENT OF COVID-19” (priority 2020, published 2023).)
